Bounds are passed on as bounds.

The target in one test is T1, rat CB2 receptor (rCB2) (Rattus norvegicus, UniProt Q9QZN9).
T1 sequence (Q9QZN9 1-360): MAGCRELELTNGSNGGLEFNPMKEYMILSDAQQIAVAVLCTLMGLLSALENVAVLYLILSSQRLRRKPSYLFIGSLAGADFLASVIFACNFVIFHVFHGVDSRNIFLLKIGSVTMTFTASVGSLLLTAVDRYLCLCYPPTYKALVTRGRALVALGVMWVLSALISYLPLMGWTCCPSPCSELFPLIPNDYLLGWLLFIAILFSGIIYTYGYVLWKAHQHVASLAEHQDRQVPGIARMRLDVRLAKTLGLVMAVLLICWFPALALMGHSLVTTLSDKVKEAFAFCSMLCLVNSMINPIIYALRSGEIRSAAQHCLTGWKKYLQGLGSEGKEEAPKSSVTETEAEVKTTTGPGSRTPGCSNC
Kind of test: cell-based. The format is cell-based. To be noted: intracellular cAMP, CHO-K1 cells, NKH-477 prestimulated, + agonist, − inverse agonist.

The target of test [1] is human CB2 receptor (hCB2) (Homo sapiens, UniProt P34972). Briefly: cell-based. To be noted: intracellular cAMP, CHO-K1 cells, NKH-477 prestimulated, + agonist, − inverse agonist. The format is cell-based.
Test [2] has as its target human CB1 receptor (hCB1) (Homo sapiens, UniProt P21554). Briefly: cAMP assay (LANCE TR-FRET) in CHO-K1 cells expressing hCB1. The format is cell-based. To be noted: intracellular cAMP, NKH-477 prestimulated, + agonist, − inverse agonist. (In general: cAMP levels reflect the balance of adenylyl cyclase and phosphodiesterase activity.)
Test [3] has as its system CFA-induced mechanical hyperalgesia. Kind of test: Anti-hyperalgesia in the Complete Freund's Adjuvant (CFA) model of inflammatory pain, Randall-Selitto paw pressure. Format: in vivo, Male Sprague-Dawley rats. To be noted: rat, injured paw, Pre-CFA 175 ± 4 g, Post-CFA 100 ± 3 g, cut-off 260 g, mean ± SEM, p < 0.05 vs Post-CFA.

human CB1 receptor (hCB1), sequence (P21554 whole entry): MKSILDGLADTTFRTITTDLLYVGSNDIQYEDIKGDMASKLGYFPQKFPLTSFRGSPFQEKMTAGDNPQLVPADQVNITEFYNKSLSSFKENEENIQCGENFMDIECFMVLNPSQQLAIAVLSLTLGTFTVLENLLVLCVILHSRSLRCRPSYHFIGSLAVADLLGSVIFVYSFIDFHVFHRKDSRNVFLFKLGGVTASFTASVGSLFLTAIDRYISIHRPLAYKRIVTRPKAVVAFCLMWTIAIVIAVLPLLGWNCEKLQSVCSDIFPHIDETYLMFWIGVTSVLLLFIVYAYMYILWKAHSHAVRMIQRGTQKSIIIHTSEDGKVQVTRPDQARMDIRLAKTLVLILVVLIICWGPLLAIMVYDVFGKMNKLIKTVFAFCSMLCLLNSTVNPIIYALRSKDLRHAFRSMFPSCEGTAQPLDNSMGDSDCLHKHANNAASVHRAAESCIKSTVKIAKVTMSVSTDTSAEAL
human CB2 receptor (hCB2), sequence (P34972 whole entry): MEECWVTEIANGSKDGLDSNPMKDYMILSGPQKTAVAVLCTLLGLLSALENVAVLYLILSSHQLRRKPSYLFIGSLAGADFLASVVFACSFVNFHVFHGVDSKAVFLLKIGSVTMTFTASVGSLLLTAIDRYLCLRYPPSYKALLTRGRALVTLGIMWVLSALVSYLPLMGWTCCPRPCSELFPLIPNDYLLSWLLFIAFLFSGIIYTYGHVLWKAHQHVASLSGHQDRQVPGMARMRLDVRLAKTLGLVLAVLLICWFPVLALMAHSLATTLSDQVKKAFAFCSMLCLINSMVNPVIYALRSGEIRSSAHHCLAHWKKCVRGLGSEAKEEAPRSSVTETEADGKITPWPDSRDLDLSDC

With `O=C(NC1CCCC1)c1ccc2c(c1)N(S(=O)(=O)c1ccc(F)cc1)CCS2` [Example 45, N-cyclopentyl-4-(4-fluorophenylsulfonyl)-3,4-dihydro-2H-benzo[b][1,4]thiazine-6-carboxamide], the “rCB2 EC50 range” value on rat CB2 receptor (rCB2) is given as “+A”. Besides, the “hCB2 EC50 range” value in test [1] was “+B”. The “hCB1 EC50 range” value in test [2] is reported as “+D”. Also, in test [3] (1 mg/paw intrapaw), the “Test Threshold” value is 179 ± 19 g.
`O=C(c1ccc2c(c1)N(S(=O)(=O)c1ccc(F)cc1)CCS2)N1CCCC1` [Example 71]: the “rCB2 EC50 range” value on rat CB2 receptor (rCB2) is “+C”. For the same compound, in test [1], the “hCB2 EC50 range” value is given as “+C”. Moreover, the “hCB1 EC50 range” value in test [2] was “+E”.
On to `CCN(CC)C(=O)c1ccc2c(c1)N(S(=O)(=O)c1ccc(C(F)(F)F)cc1)CCS2` [Example 73, N,N-diethyl-4-(4-(trifluoromethyl)phenylsulfonyl)-3,4-dihydro-2H-benzo[b][1,4]thiazine-6-carboxamide], for which, at rat CB2 receptor (rCB2), the “rCB2 EC50 range” value is listed as “+C”. Further, in test [1], the “hCB2 EC50 range” value was “+C”. Also, the “hCB1 EC50 range” value in test [2] was “+E”.
Take `O=C(c1ccc2c(c1)N(S(=O)(=O)c1ccc(F)cc1)CCS2)N1CCCCC1` [Example 77]: on rat CB2 receptor (rCB2), the “rCB2 EC50 range” value is given as “+C”. Moreover, the “hCB2 EC50 range” value in test [1] is “+C”. In test [2], the “hCB1 EC50 range” value is “+E”.
Turning to `CC(C)(C)c1noc(-c2ccc3c(c2)N(S(=O)(=O)c2ccc(C(F)(F)F)cc2)CCS3)n1` [Example 82, 3-tert-butyl-5-(4-(4-(trifluoromethyl)phenylsulfonyl)-3,4-dihydro-2H-benzo[b][1,4]thiazin-6-yl)-1,2,4-oxadiazole], the “rCB2 EC50 range” value at rat CB2 receptor (rCB2) is listed as “+B”. Further, the “hCB2 EC50 range” value in test [1] is listed as “+B”. Besides, in test [2], the “hCB1 EC50 range” value is on record as “+D”.
In the case of `O=S(=O)(c1ccc(F)cc1)N1CCSc2ccc(-c3nc(-c4ccccn4)no3)cc21` [Example 83, 5-(4-(4-fluorophenylsulfonyl)-3,4-dihydro-2H-benzo[b][1,4]thiazin-6-yl)-3-(pyridin-2-yl)-1,2,4-oxadiazole], at rat CB2 receptor (rCB2), the “rCB2 EC50 range” value is recorded as “+B”. Further, the “hCB2 EC50 range” value in test [1] is recorded as “+C”. In test [2], the “hCB1 EC50 range” value is on record as “+D”.
As to `CC(C)(C)c1noc(-c2ccc3c(c2)N(S(=O)(=O)c2ccccc2)CCS3)n1` [Example 84], the “rCB2 EC50 range” value on rat CB2 receptor (rCB2) was “+A”. Further, the “hCB2 EC50 range” value in test [1] is given as “+C”. In addition, the “hCB1 EC50 range” value in test [2] is reported as “+E”.
The matching figures for `CC(C)(C)c1noc(-c2ccc3c(c2)N(S(=O)(=O)c2ccc(F)cc2)CCS3)n1` [Example 85, 3-tert-butyl-5-(4-(4-fluorophenylsulfonyl)-3,4-dihydro-2H-benzo[b][1,4]thiazin-6-yl)-1,2,4-oxadiazole]: “+B”, “+B” and “+D”.
As a reminder, the EC50 is the concentration that produces a half-maximal response. Consider `O=S(=O)(c1ccccc1)N1CCSc2ccc(-c3nc(-c4ccccn4)no3)cc21` [Example 87, 5-(4-(phenylsulfonyl)-3,4-dihydro-2H-benzo[b][1,4]thiazin-6-yl)-3-(pyridin-2-yl)-1,2,4-oxadiazole], for which the concentration for a half-maximal effect (EC50) (on rat CB2 receptor (rCB2) (read-out: rCB2 EC50 range); in test [1] (read-out: hCB2 EC50 range); in test [2] (read-out: hCB1 EC50 range)) was more than 10 µM each time.
With `CCc1noc(-c2ccc3c(c2)N(S(=O)(=O)c2ccc(C(F)(F)F)cc2)CCS3)n1` [Example 89, 3-ethyl-5-(4-(4-(trifluoromethyl)phenylsulfonyl)-3,4-dihydro-2H-benzo[b][1,4]thiazin-6-yl)-1,2,4-oxadiazole], the “rCB2 EC50 range” value at rat CB2 receptor (rCB2) is reported as “+A”. Moreover, in test [1], the “hCB2 EC50 range” value was “+B”. For the same compound, in test [2], the “hCB1 EC50 range” value was “+D”.
The corresponding values for `CCc1noc(-c2ccc3c(c2)N(S(=O)(=O)c2ccc(F)cc2)CCS3)n1` [Example 90, 3-ethyl-5-(4-(4-fluorophenylsulfonyl)-3,4-dihydro-2H-benzo[b][1,4]thiazin-6-yl)-1,2,4-oxadiazole] are “+A”, “+B” and “+D”.
For the compound `CC(C)(C)NC(=O)c1ccc2c(c1)N(S(=O)(=O)c1ccccc1)CCC(C)(C)S2` [Example 91, N-tert-butyl-2,2-dimethyl-5-(phenylsulfonyl)-2,3,4,5-tetrahydrobenzo[b][1,4]thiazepine-7-carboxamide], on rat CB2 receptor (rCB2), the “rCB2 EC50 range” value was “+B”. Moreover, the “hCB2 EC50 range” value in test [1] is reported as “+D”. The “hCB1 EC50 range” value in test [2] is on record as “−E”.
The matching figures for `C[C@H](NC(=O)c1ccc2c(c1)N(S(=O)(=O)c1ccccc1)CCC(C)(C)S2)C(C)(C)C` [Example 98, (S)-N-(3,3-dimethyl-butan-2-yl)-2,2-dimethyl-5-(phenyl-sulfonyl)-2,3,4,5-tetrahydrobenzo[b][1,4] thiazepine-7-carboxamide]: “−E”, “+D” and “−D”.
In the case of `CC1(C)CCN(S(=O)(=O)c2ccc(F)cc2)c2cc(C(=O)N3CCOCC3)ccc2S1` [Example 100, (5-(4-fluorophenyl-sulfonyl)-2,2-dimethyl-2,3,4,5-tetrahydro-benzo[b][1,4]thiazepin-7-yl) (morpholino)-methanone], the “rCB2 EC50 range” value at rat CB2 receptor (rCB2) is “+C”. The “hCB2 EC50 range” value in test [1] was “+E”. Moreover, in test [2], the “hCB1 EC50 range” value was “−E”.
`CC1(C)CCN(S(=O)(=O)c2ccc(F)cc2)c2cc(C(=O)NC3CCCC3)ccc2S1` [Example 101, N-cyclopentyl-5-(4-fluorophenylsulfonyl)-2,2-dimethyl-2,3,4,5-tetrahydrobenzo[b][1,4] thiazepine-7-carboxamide]: the “rCB2 EC50 range” value at rat CB2 receptor (rCB2) is recorded as “−C”. In addition, in test [1], the “hCB2 EC50 range” value is “+E”. Besides, the “hCB1 EC50 range” value in test [2] is recorded as “−E”.
For the compound `CNC(=O)[C@@H](NC(=O)c1ccc2c(c1)N(S(=O)(=O)c1ccc(F)cc1)CCC(C)(C)S2)C(C)(C)C` [Example 103, (S)-N-(3,3-dimethyl-1-(methylamino)-1-oxobutan-2-yl)-5-(4-fluorophenyl-sulfonyl)-2,2-dimethyl-2,3,4,5-tetrahydrobenz0-[b][1,4]thiazepine-7-carboxamide], on rat CB2 receptor (rCB2), the “rCB2 EC50 range” value is given as “+C”. In addition, the “hCB2 EC50 range” value in test [1] is “+D”. The “hCB1 EC50 range” value in test [2] was “−E”.
The matching figures for `O=S(=O)(c1ccc(F)cc1)N1CCSc2ccc(-c3nnc(-c4ccccc4)o3)cc21` [Example 104, 2-(4-(4-fluorophenylsulfonyl)-3,4-dihydro-2H-benzo[b][1,4]thiazin-6-yl)-5-phenyl-1,3,4-oxadiazole]: “+B”, “+C” and “+D”.
The matching figures for `O=S(=O)(c1ccc(C(F)(F)F)cc1)N1CCSc2ccc(-c3nnc(-c4ccccc4)o3)cc21` [Example 105, 2-phenyl-5-(4-(4-(trifluoromethyl)phenylsulfonyl)-3,4-dihydro-2H-benzo[b][1,4]thiazin-6-yl)-1,3,4-oxadiazole]: “+A”, “+C” and “+D”.
The matching figures for `O=S(=O)(c1ccc(F)cc1)N1CCSc2ccc(-c3ncc(-c4ccccc4)[nH]3)cc21` [Example 108, 4-(4-fluorophenylsulfonyl)-6-(5-phenyl-1H-imidazol-2-yl)-3,4-dihydro-2H-benzo[b][1,4]thiazine]: “+B”, “+C” and “+E”.
Consider `O=S(=O)(c1ccc(C(F)(F)F)cc1)N1CCSc2ccc(-c3nc4ccccc4o3)cc21` [Example 109, 2-(4-(4-(trifluoromethyl)phenylsulfonyl)-3,4-dihydro-2H-benzo[b][1,4]thiazin-6-yl)benzo[d]oxazole], for which the “rCB2 EC50 range” value on rat CB2 receptor (rCB2) was “+B”. The “hCB2 EC50 range” value in test [1] is recorded as “+C”. In test [2], the “hCB1 EC50 range” value is recorded as “+D”.
For `Cc1c(C(=O)c2cccc3ccccc23)c2cccc3c2n1[C@H](CN1CCOCC1)CO3` [WIN 55212, 2, reference compound], the “Test Threshold” value in test [3] (0.1 mg/paw intrapaw) stood at 255 ± 5 g.

These data come from patent US7960376B2, “Benzo-fused heterocycles” (priority 2007, dated 2011).
